Source: US20230382920A1, “SHMT Inhibitors” (The Trustees of Princeton University, priority 2020, published 2023)

What was measured:
[1] = Pharmacokinetics study of KDG-0271 in male CD1 mice (Example 4); type: in vivo; conditions: for F: bioavailability vs 1 mg/kg IV; for AUC(0-inf) / AUC(0-t) / Cmax / Tmax / half-life / concentration at 0.25 h / concentration at 0.5 h / concentration at 1 h / concentration at 2 h / concentration at 4 h / concentration at 8 h / MRT inf: mouse, plasma; for MRT inf: read-out: MRTInf_obs
Protocol: A standard PK study of KDG-0271 was performed in male CD1 mice dosed with a single intravenous, oral or intraperitoneal dose of KDG-0271. The parameters of the PK study are described in Table 26. Dosing solutions were freshly made prior to use, and were in the form of a suspension. […] For IV and IP, after collection, plasma samples from the same time point were pooled, and the pooled samples were analyzed by LC/MS/MS.
Sample preparation and analysis were conducted in accordance with the method described in Example 3.
(§1) BLOQ=Below quantifiable limit of 1 ng/mL. PK parameters were estimated by non-compartmental model using WinNonlin 6.1. The PO bioavailability (F %) was calculated as following:
(§2) AUClast-PO/AUCINF-PO>80%: F=(AUCINF-PO*DoseIV)/(mean AUCINF-IV*DosePO) AUClast-PO/AUCINF-PO≤80% or AUCINF was not available: F=(AUClast-PO*DoseIV)/(mean AUClast-IV*DosePO).
(§3) The IP bioavailability (F %) was calculated as following:
(§4) AUClast-IP/AUCINF-IP>80%: F=(AUCINF-IP*DoseIV)/(mean AUCINF-IV*DoseIP) AUClast-IP/AUCINF-IP≤80% or AUCINF was not available: F=(AUClast-IP*DoseIV)/(mean AUClast-IV*DoseIP).

[2] = Pharmacokinetics study of KDG-0271 in male CD1 mice (Example 3); type: in vivo; conditions: for F: bioavailability vs 1 mg/kg IV; for MRT inf: read-out: MRTInf_obs
Protocol: A standard PK study of KDG-0271 was performed in male CD1 mice dosed with a single oral or intraperitoneal dose of KDG-0271. The parameters of the PK study are described in Table 18. Dosing solutions were freshly made prior to use, and were in the form of a suspension. […] For IV and IP, after collection, plasma samples from the same time point were pooled, and the pooled samples were analyzed by LC/MS/MS.
The desired serial concentrations of working solutions were achieved by diluting stock solution of analyte with 50% acetonitrile in water solution. 5 μL of working solutions (1, 2, 4, 20, 100, 200, 1000, 2000 ng/mL) were added to 10 μL of blank CD1 mouse plasma to achieve calibration standards of […] (0.5, 1, 2, 10, 50, 100, 500, 1000 ng/mL) in a total volume of 15 μL. Four quality control samples at 1 ng/mL, 2 ng/mL, 50 ng/mL and 800 ng/mL for plasma were prepared independently of those used for the calibration curves. These QC samples were prepared on the day of analysis in the same way as calibration standards.
15 μL standards, 15 μL QC samples and 15 μL unknown samples (10 μL plasma with 5 μL blank solution) were added to 200 μL of acetonitrile containing IS mixture for precipitating protein. Then the samples were vortexed for 30 seconds. After centrifugation at 4 degrees Celsius, 4000 rpm for 15 minutes, the supernatant was diluted three times with water. 10 μL of diluted supernatant was injected into the LC/MS/MS system for quantitative analysis.
as §1, §2, §3, §4

[3] = 30 mg/kg IP, read-out: Concentration IP_Mean
[4] = 50 mg/kg PO, read-out: Concentration PO_Mean
[5] = male, mouse, plasma, CD1 mice, 1 mg/kg IV
[6] = male, mouse, CD1 mice, plasma, 1 mg/kg IV, read-out: Concentration IV_Mean
[7] = mouse, plasma, male CD1 mice, 200 mg/kg IP
[8] = mouse, plasma, male CD1 mice, 200 mg/kg PO
[9] = mouse, male CD1 mice, plasma, 200 mg/kg IP, read-out: Concentration IP_Mean
[10] = mouse, male CD1 mice, plasma, 200 mg/kg PO, read-out: Concentration PO_Mean

Q: With `Cc1n[nH]c2c1C(c1cc(C#CC3CN(C(=O)OC(C)(C)C)C3)cc(CO)c1)(C(C)C)C(C#N)=C(N)O2` (stereo not drawn) [KDG-0271, tert-butyl 3-[2-(3-[6-amino-5-cyano-4-isopropyl-3-methyl-1H-pyrano[2,3-c]pyrazol-4-yl]-5-(hydroxymethyl)phenyl)ethynyl]azetidine-1-carboxylate] as the molecule, how does the AUC_%Extrap_obs ([1]; 30 mg/kg IP) read?
A: The AUC_%Extrap_obs was 2.65%.

Q: And the AUClast/D ([1]; 30 mg/kg IP)?
A: The AUClast/D was 174 kg·ng·h/mL/mg.

Q: And the F ([1]; 30 mg/kg IP)?
A: The F was 179%.

Q: And the AUC_%Extrap_obs ([1]; 50 mg/kg PO)?
A: Its AUC_%Extrap_obs is 0.172%.

Q: And the AUClast/D ([1]; 50 mg/kg PO)?
A: Its AUClast/D is 38.1 kg·ng·h/mL/mg.

Q: What about the F ([1]; 50 mg/kg PO) of the same molecule?
A: Its F is 38.1%.

Q: What about the AUC(0-inf) ([1]; 30 mg/kg IP) of the same molecule?
A: Its AUC(0-inf) is 5360 ng·h/mL.

Q: And the AUC(0-t) ([1]; 30 mg/kg IP)?
A: Its AUC(0-t) is 5220 ng·h/mL.

Q: And the Cmax ([1]; 30 mg/kg IP)?
A: The Cmax was 3170 ng/mL.

Q: And the Tmax ([1]; 30 mg/kg IP)?
A: The Tmax was 0.25 h.

Q: What about the half-life ([1]; 30 mg/kg IP) of the same molecule?
A: Its half-life is 1.6 h.

Q: And the concentration at 0.25 h [1, 3]?
A: The concentration at 0.25 h was 3170 ng/mL.

Q: What about the concentration at 0.5 h [1, 3] of the same molecule?
A: Its concentration at 0.5 h is 2420 ng/mL.

Q: And the concentration at 1 h [1, 3]?
A: The concentration at 1 h was 1580 ng/mL.

Q: What about the concentration at 2 h [1, 3] of the same molecule?
A: The concentration at 2 h was 841 ng/mL.

Q: What about the concentration at 4 h [1, 3] of the same molecule?
A: Its concentration at 4 h is 317 ng/mL.

Q: What about the concentration at 8 h [1, 3] of the same molecule?
A: Its concentration at 8 h is 61.4 ng/mL.

Q: And the MRT inf ([1]; 30 mg/kg IP)?
A: Its MRT inf is 1.98 h.

Q: And the AUC(0-inf) ([1]; 50 mg/kg PO)?
A: The AUC(0-inf) was 1910 ng·h/mL.

Q: And the AUC(0-t) ([1]; 50 mg/kg PO)?
A: The AUC(0-t) was 1900 ng·h/mL.

Q: And the Cmax ([1]; 50 mg/kg PO)?
A: Its Cmax is 872 ng/mL.

Q: And the Tmax ([1]; 50 mg/kg PO)?
A: Its Tmax is 0.5 h.

Q: What about the half-life ([1]; 50 mg/kg PO) of the same molecule?
A: Its half-life is 0.851 h.

Q: What about the concentration at 0.25 h [1, 4] of the same molecule?
A: Its concentration at 0.25 h is 750 ng/mL.

Q: And the concentration at 0.5 h [1, 4]?
A: Its concentration at 0.5 h is 872 ng/mL.

Q: What about the concentration at 1 h [1, 4] of the same molecule?
A: Its concentration at 1 h is 857 ng/mL.

Q: And the concentration at 2 h [1, 4]?
A: The concentration at 2 h was 350 ng/mL.

Q: And the concentration at 4 h [1, 4]?
A: Its concentration at 4 h is 72 ng/mL.

Q: What about the concentration at 8 h [1, 4] of the same molecule?
A: Its concentration at 8 h is 2.67 ng/mL.

Q: And the MRT inf ([1]; 50 mg/kg PO)?
A: The MRT inf was 1.49 h.

Q: And the clinical symptoms ([1]; single dose 1 mg/kg IV, 50 mg/kg PO or 30 mg/kg IP, entire experiment)?
A: The clinical symptoms was “No abnormal clinical symptoms were observed”.

Q: What about the AUC_%Extrap_obs ([2]; CD1 mice, 1 mg/kg IV) of the same molecule?
A: The AUC_%Extrap_obs was 0.718%.

Q: What about the AUClast/D ([2]; CD1 mice, 1 mg/kg IV) of the same molecule?
A: Its AUClast/D is 99.3 kg·ng·h/mL/mg.

Q: What about the Cl_obs ([2]; CD1 mice, 1 mg/kg IV) of the same molecule?
A: Its Cl_obs is 167 mL/min/kg.

Q: And the Vss_obs ([2]; CD1 mice, 1 mg/kg IV)?
A: The Vss_obs was 3.32 L/kg.

Q: And the “Concentration IV_Mean” value ([2]; CD1 mice, plasma, 1 mg/kg IV, 8 h)?
A: The value was “BLOQ”.

Q: And the AUC_%Extrap_obs ([2]; male CD1 mice, 200 mg/kg IP)?
A: The AUC_%Extrap_obs was 43.6%.

Q: And the AUClast/D ([2]; male CD1 mice, 200 mg/kg IP)?
A: The AUClast/D was 40.7 kg·ng·h/mL/mg.

Q: What about the F ([2]; male CD1 mice, 200 mg/kg IP) of the same molecule?
A: The F was 41.0%.

Q: And the AUC_%Extrap_obs ([2]; male CD1 mice, 200 mg/kg PO)?
A: The AUC_%Extrap_obs was 1.28%.

Q: And the AUClast/D ([2]; male CD1 mice, 200 mg/kg PO)?
A: The AUClast/D was 19.2 kg·ng·h/mL/mg.

Q: And the F ([2]; male CD1 mice, 200 mg/kg PO)?
A: The F was 19.4%.

Q: And the clinical symptoms ([2]; male CD1 mice, single dose 200 mg/kg PO or 200 mg/kg IP, entire experiment)?
A: The clinical symptoms was “No abnormal clinical symptoms were observed”.

Q: And the AUC(0-inf) [2, 5]?
A: The AUC(0-inf) was 100 ng·h/mL.

Q: What about the AUC(0-t) [2, 5] of the same molecule?
A: Its AUC(0-t) is 99.3 ng·h/mL.

Q: What about the C0 [2, 5] of the same molecule?
A: The C0 was 637 ng/mL.

Q: And the half-life [2, 5]?
A: Its half-life is 0.787 h.

Q: And the MRT inf [2, 5]?
A: The MRT inf was 0.332 h.

Q: What about the concentration at 0.083 h ([2]; male, mouse, CD1 mice, plasma, 1 mg/kg IV, 0.083 h, read-out: Concentration IV_Mean) of the same molecule?
A: The concentration at 0.083 h was 301 ng/mL.

Q: And the concentration at 0.25 h [2, 6]?
A: The concentration at 0.25 h was 66.6 ng/mL.

Q: What about the concentration at 0.5 h [2, 6] of the same molecule?
A: Its concentration at 0.5 h is 24.8 ng/mL.

Q: What about the concentration at 1 h [2, 6] of the same molecule?
A: The concentration at 1 h was 9.44 ng/mL.

Q: What about the concentration at 2 h [2, 6] of the same molecule?
A: The concentration at 2 h was 2.87 ng/mL.

Q: And the concentration at 4 h [2, 6]?
A: Its concentration at 4 h is 0.632 ng/mL.

Q: And the AUC(0-inf) [2, 7]?
A: The AUC(0-inf) was 14500 ng·h/mL.

Q: What about the AUC(0-t) [2, 7] of the same molecule?
A: Its AUC(0-t) is 8150 ng·h/mL.

Q: And the Cmax [2, 7]?
A: Its Cmax is 2160 ng/mL.

Q: What about the Tmax [2, 7] of the same molecule?
A: Its Tmax is 0.25 h.

Q: And the half-life [2, 7]?
A: The half-life was 6.85 h.

Q: What about the MRT inf [2, 7] of the same molecule?
A: Its MRT inf is 9.67 h.

Q: What about the AUC(0-inf) [2, 8] of the same molecule?
A: Its AUC(0-inf) is 3880 ng·h/mL.

Q: And the AUC(0-t) [2, 8]?
A: Its AUC(0-t) is 3830 ng·h/mL.

Q: What about the Cmax [2, 8] of the same molecule?
A: The Cmax was 1070 ng/mL.

Q: What about the Tmax [2, 8] of the same molecule?
A: Its Tmax is 1 h.

Q: What about the half-life [2, 8] of the same molecule?
A: Its half-life is 1.2 h.

Q: And the MRT inf [2, 8]?
A: The MRT inf was 2.37 h.

Q: And the concentration at 0.25 h [2, 9]?
A: The concentration at 0.25 h was 2160 ng/mL.

Q: What about the concentration at 0.5 h [2, 9] of the same molecule?
A: The concentration at 0.5 h was 1530 ng/mL.

Q: And the concentration at 1 h [2, 9]?
A: The concentration at 1 h was 1390 ng/mL.

Q: And the concentration at 2 h [2, 9]?
A: Its concentration at 2 h is 1160 ng/mL.

Q: And the concentration at 4 h [2, 9]?
A: The concentration at 4 h was 992 ng/mL.

Q: What about the concentration at 8 h ([2]; mouse, male CD1 mice, plasma, 200 mg/kg IP, 8 h, read-out: Concentration IP_Mean) of the same molecule?
A: Its concentration at 8 h is 638 ng/mL.

Q: What about the concentration at 0.25 h [2, 10] of the same molecule?
A: Its concentration at 0.25 h is 701 ng/mL.

Q: And the concentration at 0.5 h [2, 10]?
A: Its concentration at 0.5 h is 958 ng/mL.

Q: What about the concentration at 1 h [2, 10] of the same molecule?
A: Its concentration at 1 h is 1070 ng/mL.

Q: What about the concentration at 2 h [2, 10] of the same molecule?
A: Its concentration at 2 h is 836 ng/mL.

Q: And the concentration at 4 h [2, 10]?
A: Its concentration at 4 h is 395 ng/mL.

Q: And the concentration at 8 h ([2]; mouse, male CD1 mice, plasma, 200 mg/kg PO, 8 h, read-out: Concentration PO_Mean)?
A: Its concentration at 8 h is 28.6 ng/mL.
